According to article PMC4685874, “Bromotyrosine-derived alkaloids from the Caribbean sponge Aplysina lacunosa” (Beilstein Journal of Organic Chemistry, 2015):

Tests used:
Type in all cases: cell-based
[1] = WST-1 cell proliferation (cytotoxicity) assay, MCF-7; conditions: human, MCF-7 breast cancer cell line, WST-1, incubated for 5 days
Method: (§1) The cytotoxicity was determined using WST-1 cell proliferation assays. Targeting cell lines are L929 mouse fibroblasts, KB-31 epidermoid carcinoma, and MCF-7 breast cancer cell lines which were incubated for 5 days with the test substances. The acute toxicity was determined using the FS4-LTM conditional immortalization human fibroblasts cell line which was incubated for 24 hours with the test compounds.

[2] = Acute toxicity, WST-1 assay, FS4-LTM; conditions: human, FS4-LTM conditionally immortalized fibroblasts, FS4-LTM conditional immortalization human fibroblasts, incubated for 24 hours; read-out: Cytotoxicity (acute toxicity) IC50 FS4-LTM
Method: as §1

[3] = WST-1 cell proliferation (cytotoxicity) assay, KB-31; conditions: human, WST-1, incubated for 5 days
Method: as §1

[4] = WST-1 cell proliferation (cytotoxicity) assay, L929; conditions: L929 mouse fibroblasts, WST-1, incubated for 5 days
Method: as §1

[5] = system: KB-31 epidermoid carcinoma cells; assay: WST-1 cell proliferation (cytotoxicity) assay, KB-31; conditions: WST-1, incubated for 5 days
Method: as §1

[6] = system: MCF-7 breast cancer cell line; assay: WST-1 cell proliferation (cytotoxicity) assay, MCF-7; conditions: WST-1, incubated for 5 days
Method: as §1

[7] = system: FS4-LTM conditional immortalization human fibroblasts; assay: Acute toxicity, WST-1 assay, FS4-LTM; conditions: incubated for 24 hours, read-out: Cytotoxicity (acute toxicity) IC50 FS4-LTM
Method: as §1

[8] = KB-31 epidermoid carcinoma cells

In the case of COC1=C(Br)[C@H](O)[C@@]2(C=C1Br)CC(C(=O)NCCc1cc(Br)c(OCCCN)c(Br)c1)=NO2 [Compound 10, hexadellin B], the IC50 at 5 days ([1]; MCF-7 breast cancer cells) is reported as 90.6 µM and the IC50 at 24 hours [2] is reported as 73.4 µM.
COC1=C(Br)[C@@H]2OC(=O)C[C@]2(O)C=C1Br [Compound 16, aeroplysinin-2] gave an IC50 at 5 days [1] of 96.3 µM.
Work on COC1=C(Br)[C@H](O)[C@@]2(C=C1Br)CC(C(=O)NCCCOc1c(Br)cc(C(O)CNC(=O)C3=NO[C@]4(C=C(Br)C(OC)=C(Br)[C@@H]4O)C3)cc1Br)=NO2 (stereo partly shown) [Compound 8, 11-deoxyfistularin-3] yielded an IC50 at 5 days ([1]; MCF-7 breast cancer cells) of 47.2 µM and an IC50 at 24 hours [2] of 87.3 µM.
Compound CNc1nc(CCCNC(=O)C2=NO[C@]3(C=C(Br)C(OC)=C(Br)[C@@H]3O)C2)c[nH]1 [Compound 15, N-methyl-aerophobin-2] has an IC50 at 5 days [3, 8] of 48.9 µM and an IC50 at 5 days [4] of 55.9 µM.
Work on COC1=C(Br)[C@H](O)[C@@]2(C=C1Br)CC(C(=O)NCCCOc1ccc([C@H](O)CNC(=O)C3=NO[C@]4(C=C(Br)C(OC)=C(Br)[C@@H]4O)C3)cc1Br)=NO2 [Compound 1, 14-debromo-11-deoxyfistularin-3] yielded an IC50 [5] of 68.8 µM and an IC50 at 5 days [3, 8] of 69 µM.
With COC(=O)Cc1cc(Br)c(O)c(Br)c1O [Compound 17, subereaphenol B] the IC50 at 5 days ([1]; MCF-7 breast cancer cells) was 64.8 µM.
COC1=C(Br)[C@H](O)[C@@]2(C=C1Br)CC(C(=O)NCCCOc1ccc(CCN)cc1Br)=NO2 [Compound 4, 14-debromoaraplysillin I] gave an IC50 at 5 days ([1]; MCF-7 breast cancer cells) of 78.6 µM and an IC50 at 5 days [4] of 94.3 µM.
With COC1=C(Br)[C@H](O)[C@@]2(C=C1Br)CC(C(=O)NC[C@@H](O)c1cc(Br)c(OCCCNC(C)=O)c(Br)c1)=NO2 [Compound 2, aplysinin A] the IC50 [5] was 25.8 µM, the IC50 at 5 days [3, 8] was 26 µM and the IC50 [6] was 77.5 µM. The IC50 at 5 days ([1]; MCF-7 breast cancer cells) was 78 µM, the IC50 [7] was 32.2 µM and the IC50 at 24 hours [2] was 32 µM.
Compound COC1=C(Br)[C@H](O)[C@@]2(C=C1Br)CC(C(=O)NCCc1cc(Br)c(OCC(O)CNC(=O)C3=NO[C@]4(C=C(Br)C(OC)=C(Br)[C@@H]4O)C3)c(Br)c1)=NO2 (stereo partly shown) [Compound 7, 19-deoxyfistularin-3] has an IC50 at 5 days [1] of 60 µM.
For COC1=C(Br)[C@H](O)[C@@]2(C=C1Br)CC(C(=O)NCCCOc1c(Br)cc(CCNC(=O)C3=NO[C@]4(C=C(Br)C(OC)=C(Br)[C@@H]4O)C3)cc1Br)=NO2 [Compound 6, 11,19-dideoxyfistularin-3], the IC50 at 5 days ([3]; KB-31 epidermoid carcinoma) was 88.2 µM and the IC50 at 5 days [4] was 118 µM.
With COC1=C(Br)[C@H](O)[C@@]2(C=C1Br)CC(C(=O)NCC(O)COc1c(Br)cc(C(O)CNC(=O)C3=NO[C@]4(C=C(Br)C(OC)=C(Br)[C@@H]4O)C3)cc1Br)=NO2 (stereo partly shown) [Compound 5, fistularin-3] the IC50 at 5 days [1] was 207 µM.
